Laboratory results as given in patent US9909123B2, “Antisense molecules for treatment of Staphylococcus aureus infection” (priority 2013, dated 2018).
Ends that are not written are not given here.

System: MRSA
Assay: FITC assay to monitor cellular uptake of peptides (fluorescence microscopy)
Assay type: cell-based, Staphylococcus aureus
Settings: 2 hours post-treatment with 1 μM of FITC-peptide agents
Method: An FITC assay may be utilized, to monitor cellular uptake of peptides. Peptides were conjugated to fluorescein isothiocyanate (FITC) to monitor uptake using florescence microscopy. FIG. 2A-2B show assay results for several peptides as tested in MRSA (FIG. 2A) and AcB (FIG. 2B) (fluorescent overlays 2 hours post-treatment with 1 μM of FITC peptide agents, scale bar=100 μm).
An FITC assay was utilized to monitor cellular uptake of peptides. Peptides were conjugated to fluorescein isothiocyanate (FITC) to monitor uptake using, florescence microscopy.

Row | Sequence | cellular entry of FITC-peptide
1 | RFFRFFRFFR (also: FITC label, site not given here) [cell penetrating peptide, tested conjugated to FITC] | effective for cellular entry
2 | KFFKFFKFFK (also: FITC label, site not given here) [cell penetrating peptide, tested conjugated to FITC] | effective for cellular entry
3 | GIGKWLHSAKKFGKAFVGEIMNS (also: FITC label, site not given here) [Magainin-FITC, Magainin 2 cell penetrating peptide conjugated to fluorescein isothiocyanate (FITC)] | effective for entry into MRSA
